# Test results as given in patent US20240293413A1, “COMPOUND AND METHOD FOR TREATING CHEMOTHERAPY-RELATED GASTROINTESTINAL SIDE EFFECTS” (ONQUALITY PHARMACEUTICALS CHINA LTD., priority 2021, published 2024).
# Test system: Chemotherapeutic agent-caused diarrhea models of Balb/c mice
# Assay: Examples 1-229 (Table 3): oral CDK inhibitor, relief of diarrhea caused by a chemotherapeutic agent;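 further: percent of treated mice whose diarrhea grade fell below chemotherapy-group average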
# Format: in vivo
# Source text: Construction of mouse animal models: Chemotherapeutic agent-caused diarrhea models of Balb/c mice were constructed according to the administration mode and frequency of the chemotherapeutic agent as shown in Table 3.
# Balb/c mice were fed for 1 week, and then divided into groups. The experiment was divided into a control group, a chemotherapeutic agent group, and a CDK inhibitor group, each of which comprised 10 mice, to perform the administration experiment, for which the administration dosage, mode, time and frequency were shown in Table 3. The control group: being intragastrically administered with the same solvent as that used in the CDK inhibitor group (the time was shown in Table 3), and then being injected/intragastrically administered with the same solvent as that used in the chemotherapeutic agent group (the administration mode was shown in Table 3): the chemotherapeutic agent group: being intragastrically administered with the same solvent as that used in the CDK inhibitor group (the time was shown in Table 3), and then being injected/intragastrically administered with the chemotherapeutic agent (the type, administration mode and dosage were shown in Table 3); the CDK inhibitor group: being intragastrically administered with the CDK inhibitor (the time was shown in Table 3), and then being administered with the chemotherapeutic agent (the mode and dosage were shown in Table 3).
# The diarrhea grading of mice was observed and recorded every day.
compound,measurement,setting,value
CN1CC[C@H](c2c(O)cc(O)c3c(=O)cc(-c4ccccc4Cl)oc23)[C@H](O)C1 [Alvocidib],Relative remission rate (%),"Example 119, Irinotecan (CPT-11) intraperitoneal injection 240 mg/kg single, CDK inhibitor oral 70 mg/kg single 6 h before, cycle 7 days",40%
same,Relative remission rate (%),"Example 201, Gemcitabine 60 mg/kg and paclitaxel 10 mg/kg intravenous injection single, CDK inhibitor oral 70 mg/kg single, 6 h before, 8 days",50%
O=C(NC1CCNCC1)c1[nH]ncc1NC(=O)c1c(Cl)cccc1Cl [AT-7519],Relative remission rate (%),"Example 205, Gemcitabine 60 mg/kg and paclitaxel 10 mg/kg intravenous injection single, CDK inhibitor oral 50 mg/kg single, 4 h before, 8 days",20%
CC(=O)Nc1ccc([C@H](C)C(=O)Nc2ncc(C(C)C)s2)cc1 [PHA-690509],Relative remission rate (%),"Example 123, Irinotecan (CPT-11) intraperitoneal injection 240 mg/kg single, CDK inhibitor oral 60 mg/kg single 12 h before, cycle 7 days",40%
CN1C/C=C/CCOc2cccc(c2)-c2ccnc(n2)Nc2cccc(c2)C1 [Zotiraciclib],Relative remission rate (%),"Example 33, Fluorouracil (5-Fu) intraperitoneal injection 125 mg/kg single, CDK inhibitor oral 100 mg/kg single 4 h before, cycle 10 days",20%
same,Relative remission rate (%),"Example 152, Docetaxel (DTX) intraperitoneal injection 10 mg/kg single, CDK inhibitor oral 100 mg/kg single 8 h before, cycle 8 days",30%
COc1cc(F)ccc1-c1cc(Nc2cc(CS(C)(=N)=O)ccn2)ncc1F (stereo not shown) [BAY-1251152],Relative remission rate (%),"Example 38, Fluorouracil (5-Fu) intraperitoneal injection 125 mg/kg single, CDK inhibitor oral 60 mg/kg single 8 h before, cycle 10 days",20%
CN1CCN(C2CCN(c3ccc(Nc4ncc5sc(C(=O)N(C)C)c(C6CCCC6)c5n4)nc3)CC2)CC1 [FCN437],Relative remission rate (%),"Example 147, Docetaxel (DTX) intraperitoneal injection 10 mg/kg single, CDK inhibitor oral 90 mg/kg single 8 h before, cycle 8 days",60%
same,Relative remission rate (%),"Example 206, Carboplatin 5 mg/kg and paclitaxel 10 mg/kg intraperitoneal injection single, CDK inhibitor oral 90 mg/kg single, 4 h before, 10 days",40%
CCN1CCN(Cc2ccc(Nc3ncc(F)c(-c4cc(F)c5nc6n(c5c4)C(C)CCC6)n3)nc2)CC1 (stereo not shown) [BPI-16350],Relative remission rate (%),"Example 30, Fluorouracil (5-Fu) intraperitoneal injection 125 mg/kg single, CDK inhibitor oral 150 mg/kg single 6 h before, cycle 10 days",80%
same,Relative remission rate (%),"Example 71, Oxaliplatin intraperitoneal injection 20 mg/kg single, CDK inhibitor oral 150 mg/kg single 4 h before, cycle 8 days",40%
same,Relative remission rate (%),"Example 196, Gemcitabine 60 mg/kg and paclitaxel 10 mg/kg intraperitoneal injection single, CDK inhibitor oral 150 mg/kg single, 2 h before, 8 days",50%
CC1=Nc2c(F)cc(-c3nc(Nc4ccc(C5CCN(C)CC5)cn4)ncc3F)cc2C12CCCC2 [GLR2007],Relative remission rate (%),"Example 155, Docetaxel (DTX) intraperitoneal 10 mg/kg single, CDK inhibitor oral 60 mg/kg single 8 h before, cycle 8 days",50%
same,Relative remission rate (%),"Example 168, Docetaxel (DTX) intravenous injection 10 mg/kg single, CDK inhibitor oral 60 mg/kg single 4 h before, cycle 8 days",30%
same,Relative remission rate (%),"Example 191, Gemcitabine (GEM) intraperitoneal injection 120 mg/kg single, CDK inhibitor oral 60 mg/kg single, 10 h before, 8 days",50%
CN1CC[C@@H](c2c(O)cc(O)c3c(=O)cc(-c4ccc(C(F)(F)F)cc4Cl)oc23)[C@@H]1CO [Voruciclib],Relative remission rate (%),"Example 76, Oxaliplatin intraperitoneal injection 20 mg/kg single, CDK inhibitor oral 250 mg/kg single 4 h before, cycle 8 days",70%
same,Relative remission rate (%),"Example 203, Gemcitabine 60 mg/kg and paclitaxel 10 mg/kg intravenous injection single, CDK inhibitor oral 250 mg/kg single, 8 h before, 8 days",80%
COc1ccc(F)c(F)c1C(=O)c1cnc(NC2CCN(S(C)(=O)=O)CC2)nc1N [RO4584820],Relative remission rate (%),"Example 218, Fluorouracil 100 mg/kg and irinotecan 200 mg/kg intravenous injection single, CDK inhibitor oral 70 mg/kg single, 4 h before, 10 days",50%
C[C@H]1CC[C@H](n2c3cnccc3c3cnc(Nc4ccc5c(n4)CCN(C(=O)CO)C5)nc32)CC1 [AMG925],Relative remission rate (%),"Example 219, Fluorouracil 100 mg/kg and oxaliplatin 10 mg/kg intraperitoneal injection single, CDK inhibitor oral 150 mg/kg single, 2 h before, 10 days",60%
O=C1Nc2ccc([N+](=O)[O-])cc2/C1=C1/Nc2ccc(O)cc2/C1=N\O [AGM-130],Relative remission rate (%),"Example 39, Fluorouracil (5-Fu) intraperitoneal injection 125 mg/kg single, CDK inhibitor oral 80 mg/kg single 12 h before, cycle 10 days",30%
CC(=O)c1c(C)c2cnc(N[C@@H]3CCOC[C@H]3O)cc2n(C2CCCC2)c1=O [PF-06842874],Relative remission rate (%),"Example 210, Carboplatin 5 mg/kg and paclitaxel 10 mg/kg intraperitoneal injection single, CDK inhibitor oral 80 mg/kg single, 6 h before, 10 days",40%
same,Relative remission rate (%),"Example 222, Fluorouracil 100 mg/kg and oxaliplatin 10 mg/kg intraperitoneal injection single, CDK inhibitor oral 80 mg/kg single, 4 h before, 10 days",30%
NS(=O)(=O)c1ccc(S(=O)(=O)Nc2cccc3c(Cl)c[nH]c23)cc1 [Indisulam],Relative remission rate (%),"Example 74, Oxaliplatin intraperitoneal injection 20 mg/kg single, CDK inhibitor oral 175 mg/kg single 4 h before, cycle 8 days",20%
same,Relative remission rate (%),"Example 190, Gemcitabine (GEM) intraperitoneal injection 120 mg/kg single, CDK inhibitor oral 175 mg/kg single, 4 h before, 8 days",40%
CN1CCN(c2ccc(Nc3ncc4cc(C#N)c(=O)n(C5CCCC5)c4n3)cc2)CC1 [ON123300],Relative remission rate (%),"Example 121, Irinotecan (CPT-11) intraperitoneal injection 240 mg/kg single, CDK inhibitor oral 250 mg/kg single 8 h before, cycle 7 days",60%
same,Relative remission rate (%),"Example 202, Gemcitabine 60 mg/kg and paclitaxel 10 mg/kg intraperitoneal injection single, CDK inhibitor oral 250 mg/kg single, 2 h before, 8 days",50%
COCCN1CCN(Cc2ccc(-c3n[nH]c4c3C(=O)c3c(NC(=O)NN5CCOCC5)cccc3-4)cc2)CC1 [RGB-286638],Relative remission rate (%),"Example 124, Irinotecan (CPT-11) intraperitoneal injection 240 mg/kg single, CDK inhibitor oral 100 mg/kg single 12 h before, cycle 7 days",60%
same,Relative remission rate (%),"Example 130, Irinotecan (CPT-11) intravenous injection 200 mg/kg single, CDK inhibitor oral 100 mg/kg single 8 h before, cycle 7 days",50%
COc1cc(F)ccc1-c1ncnc(Nc2cccc(C[S@](C)(=N)=O)c2)n1 [Atuveciclib],Relative remission rate (%),"Example 158, Docetaxel (DTX) intraperitoneal injection 10 mg/kg single, CDK inhibitor oral 50 mg/kg single 10 h before, cycle 8 days",30%
FN-1501,Relative remission rate (%),"Example 36, Fluorouracil (5-Fu) intraperitoneal injection 125 mg/kg single, CDK inhibitor oral 200 mg/kg single 6 h before, cycle 10 days",60%
same,Relative remission rate (%),"Example 156, Docetaxel (DTX) intraperitoneal injection 10 mg/kg single, CDK inhibitor oral 200 mg/kg single 10 h before, cycle 8 days",60%
same,Relative remission rate (%),"Example 169, Docetaxel (DTX) intravenous injection 10 mg/kg single, CDK inhibitor oral 200 mg/kg single 8 h before, cycle 8 days",50%
CN1CC[C@H](c2c(OP(=O)(O)O)cc(O)c3c(=O)cc(-c4ccccc4Cl)oc23)[C@H](O)C1 [TP-1287],Relative remission rate (%),"Example 37, Fluorouracil (5-Fu) intraperitoneal injection 125 mg/kg single, CDK inhibitor oral 10 mg/kg single 10 h before, cycle 10 days",40%
COc1cc(OC)c(/C=C/S(=O)(=O)Cc2ccc(OC)c(NCC(=O)O)c2)c(OC)c1 [Rigosertib],Relative remission rate (%),"Example 116, Irinotecan (CPT-11) intraperitoneal injection 240 mg/kg single, CDK inhibitor oral 250 mg/kg single 4 h before, cycle 7 days",20%
same,Relative remission rate (%),"Example 189, Gemcitabine (GEM) intraperitoneal injection 120 mg/kg single, CDK inhibitor oral 250 mg/kg single, 6 h before, 8 days",30%
same,Relative remission rate (%),"Example 214, Fluorouracil 100 mg/kg and irinotecan 200 mg/kg intravenous injection single, CDK inhibitor oral 250 mg/kg single, 2 h before, 10 days",20%
CC(=O)c1c(C)c2cnc(Nc3ccc(C4CCN(CCS(C)(=O)=O)CC4)cn3)nc2n(C2CCCC2)c1=O [BEBT-209],Relative remission rate (%),"Example 187, Gemcitabine (GEM) intraperitoneal injection 120 mg/kg single, CDK inhibitor oral 80 mg/kg single, 4 h before, 8 days",40%
same,Relative remission rate (%),"Example 207, Carboplatin 5 mg/kg and paclitaxel 10 mg/kg intraperitoneal injection single, CDK inhibitor oral 80 mg/kg single, 4 h before, 10 days",50%
Cl.Cl.Cl.Cl.OC[C@@H](O)[C@@H](CO)N1CCNCCNCCNCC1 [CS-3002],Relative remission rate (%),"Example 149, Docetaxel (DTX) intraperitoneal injection 10 mg/kg single, CDK inhibitor oral 200 mg/kg single 4 h before, cycle 8 days",70%
same,Relative remission rate (%),"Example 223, Fluorouracil 100 mg/kg and oxaliplatin 10 mg/kg intraperitoneal injection single, CDK inhibitor oral 200 mg/kg single, 2 h before, 10 days",50%
COCc1cc(C(=O)Nc2cc([C@H]3CC[C@@H](OC(=O)NC(C)C)C3)[nH]n2)n(C)n1 [PF-07104091],Relative remission rate (%),"Example 161, Docetaxel (DTX) intraperitoneal injection 10 mg/kg single, CDK inhibitor oral 50 mg/kg single 8 h before, cycle 8 days",40%
CC(C)CC(=O)Nc1[nH]nc2c1CN(C(=O)C1CCN(C)CC1)C2(C)C [PHA-793887],Relative remission rate (%),"Example 160, Docetaxel (DTX) intraperitoneal injection 10 mg/kg single, CDK inhibitor oral 70 mg/kg single 4 h before, cycle 8 days",30%
CC(C)c1c2cc(-c3nc(Nc4ccc(N5CCNCC5)cn4)ncc3F)ccc2nn1C [TQB-3616],Relative remission rate (%),"Example 32, Fluorouracil (5-Fu) intraperitoneal injection 125 mg/kg single, CDK inhibitor oral 70 mg/kg single 4 h before, cycle 10 days",30%
same,Relative remission rate (%),"Example 148, Docetaxel (DTX) intraperitoneal injection 10 mg/kg single, CDK inhibitor oral 70 mg/kg single 4 h before, cycle 8 days",50%
same,Relative remission rate (%),"Example 197, Gemcitabine 60 mg/kg and paclitaxel 10 mg/kg intravenous injection single, CDK inhibitor oral 70 mg/kg single, 4 h before, 8 days",60%
same,Relative remission rate (%),"Example 220, Fluorouracil 100 mg/kg and oxaliplatin 10 mg/kg intraperitoneal injection single, CDK inhibitor oral 70 mg/kg single, 6 h before, 10 days",60%
